Measurements as given in paper PMC5349447, “Applying a high-throughput fluorescence polarization assay for the discovery of chemical probes blocking La:RNA interactions in vitro and in cells” (PLoS ONE, 2017).

Molecular target: T1, La protein:fD1-RNA (Homo sapiens, UniProt P05455)
T1 construct: His; made in house; host or cells: E. coli BL21
T1 sequence (P05455 1-408): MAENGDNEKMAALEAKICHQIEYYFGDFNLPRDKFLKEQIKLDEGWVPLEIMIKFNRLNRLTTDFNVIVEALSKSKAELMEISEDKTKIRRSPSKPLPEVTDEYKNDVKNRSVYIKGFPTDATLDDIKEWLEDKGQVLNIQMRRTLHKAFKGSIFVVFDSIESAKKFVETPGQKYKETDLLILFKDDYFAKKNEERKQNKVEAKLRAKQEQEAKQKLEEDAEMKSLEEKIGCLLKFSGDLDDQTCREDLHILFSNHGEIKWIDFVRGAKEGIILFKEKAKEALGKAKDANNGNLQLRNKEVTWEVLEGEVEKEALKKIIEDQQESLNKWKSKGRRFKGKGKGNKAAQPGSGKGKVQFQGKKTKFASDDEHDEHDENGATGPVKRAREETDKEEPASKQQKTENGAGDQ
Assay: La:RNA fluorescence polarization assay (La-FP)
Format: binding
Settings: for IC50: 1.35 μM La, 0.8 μM fD1-RNA, compound at 25, 50, 100, 1000 μM, read-out: IC50, La:fD1-RNA complex formation (La-FP); for inhibition at 100 µM: compound 100 μM; for inhibition at 1000 µM: compound 1000 μM
Description: Measurements of fluorescence and fluorescence polarization were performed on a Spectramax M5 microplate reader (Molecular Devices, Sunnyvale, CA) with the excitation and emission wavelengths 544 nm and 590 nm, respectively. To block unwanted residual excitation light and minimize background interference, a 570 nm “cutoff” filter was applied. Black shallow 384-well micro plates (ProxiPlate ^TM– 384 F Plus, PerkinElmer) were used to record data. To minimize the polarization effects from fluorophore, which may be bound to the surface of the well, both excitation and emission data were recorded from the top of the well. Reading time was 100 ms per well. Millipolarization units (mP) were used to express fluorescence polarization values defined by the equation mP = 1000 x [(Iv—GIh) / (Iv+ GIh)], where Iv and Ih are parallel and perpendicular emission intensity measurements corrected for background (buffer), and G-factor.
The ratio of sensitivities of the detection system for vertically and horizontally polarized light G = Iv/Ih was determined with dilution series of the fluorescence-labeled cyclin D1-RNA oligonucleotide (fD1) only (free-tracer) using SoftMax® Pro Data Acquisition & Analysis Software (Molecular Devices, Sunnyvale, CA). The assay window–the specific binding ΔmP–was defined as the difference between fluorescence polarization (mP) for La protein:fD1 reactions (mPs) and fluorescence polarization of free-fD1 reactions (mPfree): ΔmP = mPs−mPfree.
The assay was formatted using 10 μl reaction volume per well. Assay buffer (20 mM Tris-HCl pH 7.5, 3.0 mM MgCl2, 0.5 mM EDTA, 150 mM NaCl, 0.05% IGEPAL, BGG 100 μg/ml (BGG = Bovine γ-Globulin or γ-Globulins from bovine blood)) was used to dilute all ingredients. Detergent was added to prevent the potential aggregation of small compounds. The aggregation of small compounds can lead to false-positive results in HTS approaches and is indicated by a high Hill factor[50]. To find the optimal concentration of the free fluorescent tracer (fD1), which gives low and stable fluorescence polarization signal, and to calculate the G-factor, 100–1000 nM fD1 dilution series were measured in quadruplicates. Using variable fD1 concentrations, the optimal tracer:protein ratio was determined in binding experiments with increasing concentrations of La protein (1.35–1350 nM). To start the reaction, fD1 and La protein stock solutions were mixed into each well. Each reaction was performed in quadruplicates. After shaking the plate for 2 min followed by 15 min incubation at room temperature, fluorescence polarization signals were recorded as described above. Fluorescence polarization measurements were performed on different days using 7 microtiter plates (111 samples total).
High-throughput screening against the ChemBridge DIVERSet library was carried out under the following conditions: 1 μl of each compound (dissolved in 100% DMSO) was pre-incubated with 8 μl of La protein for 30 min at room temperature, followed by an additional 15 min incubation with 1 μl of fD1 (final concentration of La, fD1, and DMSO in the 10 μl reaction: 1.35 μM La, 0.8 μM fD1, 10% DMSO). The reactions were performed in duplicate. In addition to samples with the compounds, each plate contained 2 background wells (10 μl buffer only), and at least 4 wells for Ps (La and fD1) and Pfree (fD1 alone) reactions. All samples included 10% DMSO. Pilot screening was carried out with 10 mM cocktails of 10 compounds (giving a final concentration of 100 μM for each compound). […] Using the same fluorescence polarization assay format, La protein (1.35 μM) was incubated with each potential hit compound at 25, 50, 100, 1000 μM (in triplicate) for 30 min, followed by an additional 15 min incubation with 0.8 μM fD1. Data points for specific binding (B) were normalized to the maximum specific binding (Bmax), which defines complete saturation of the La protein with fD1 in the absence of a compound (B/Bmax). […]

| SMILES | IC50 [µM] | inhibition at 100 µM [%] | inhibition at 1000 µM [%] |
| --- | --- | --- | --- |
| O=C(O)c1ccccc1C(=O)c1ccc(O)cc1O [C2, 2-(2,4-dihydroxybenzoyl)benzoic acid] | 7.5 | 100 | 100 |
| CCOC(=O)c1ccc2c(c1)C1C=CCC1C(C(=O)O)N2 (stereo not drawn) [C6, 8-(ethoxycarbonyl)-3a,4,5,9b-tetrahydro-3Hcyclopenta[c]quinoline-4-carboxylic acid] | 2.5 | 100 | 100 |
